Results taken from ChEMBL document CHEMBL2074444, “A comparison of commonly used polyethoxylated pharmaceutical excipients on their ability to inhibit P-glycoprotein activity in vitro” (J Pharm Sci, 2002).
One block for each molecule: values may come before it.

What was measured:
Assay type in all cases: functional, cell-based
[1] = molecular target: T1, ATP-dependent translocase ABCB1 (Homo sapiens, UniProt P08183); test: TP_TRANSPORTER: inhibition of Taxol transepithelial transport (basal to apical)(Taxol: 0.04-0.06 uM, Tween 80: 0.05 %) in Caco-2 cells
[2] = molecular target: T1, ATP-dependent translocase ABCB1; test: TP_TRANSPORTER: inhibition of Taxol transepithelial transport (basal to apical)(Taxol: 0.04-0.06 uM, Tween 80: 0.05 %) in MDR1-expressing MDCK cells; conditions: dog
[3] = molecular target: T1, ATP-dependent translocase ABCB1; test: TP_TRANSPORTER: inhibition of Taxol transepithelial transport (basal to apical)(Taxol: 0.04-0.06 uM, Cremophor EL: 0.1 %) in MDR1-expressing MDCK cells; conditions: dog
[4] = molecular target: T1, ATP-dependent translocase ABCB1; test: TP_TRANSPORTER: inhibition of Taxol transepithelial transport (basal to apical)(Taxol: 0.04-0.06 uM, Cremophor EL: 0.1 %) in Caco-2 cells
[5] = molecular target: T1, ATP-dependent translocase ABCB1; test: TP_TRANSPORTER: inhibition of Taxol transepithelial transport (basal to apical) (Taxol: 0.04-0.06 uM, PEG-300: 20 %) in Caco-2 cells
[6] = molecular target: T1, ATP-dependent translocase ABCB1; test: TP_TRANSPORTER: inhibition of Taxol transepithelial transport (basal to apical) (Taxol: 0.04-0.06 uM, PEG-300: 20 %) in MDR1-expressing MDCK cells; conditions: dog

T1 sequence (P08183 whole entry): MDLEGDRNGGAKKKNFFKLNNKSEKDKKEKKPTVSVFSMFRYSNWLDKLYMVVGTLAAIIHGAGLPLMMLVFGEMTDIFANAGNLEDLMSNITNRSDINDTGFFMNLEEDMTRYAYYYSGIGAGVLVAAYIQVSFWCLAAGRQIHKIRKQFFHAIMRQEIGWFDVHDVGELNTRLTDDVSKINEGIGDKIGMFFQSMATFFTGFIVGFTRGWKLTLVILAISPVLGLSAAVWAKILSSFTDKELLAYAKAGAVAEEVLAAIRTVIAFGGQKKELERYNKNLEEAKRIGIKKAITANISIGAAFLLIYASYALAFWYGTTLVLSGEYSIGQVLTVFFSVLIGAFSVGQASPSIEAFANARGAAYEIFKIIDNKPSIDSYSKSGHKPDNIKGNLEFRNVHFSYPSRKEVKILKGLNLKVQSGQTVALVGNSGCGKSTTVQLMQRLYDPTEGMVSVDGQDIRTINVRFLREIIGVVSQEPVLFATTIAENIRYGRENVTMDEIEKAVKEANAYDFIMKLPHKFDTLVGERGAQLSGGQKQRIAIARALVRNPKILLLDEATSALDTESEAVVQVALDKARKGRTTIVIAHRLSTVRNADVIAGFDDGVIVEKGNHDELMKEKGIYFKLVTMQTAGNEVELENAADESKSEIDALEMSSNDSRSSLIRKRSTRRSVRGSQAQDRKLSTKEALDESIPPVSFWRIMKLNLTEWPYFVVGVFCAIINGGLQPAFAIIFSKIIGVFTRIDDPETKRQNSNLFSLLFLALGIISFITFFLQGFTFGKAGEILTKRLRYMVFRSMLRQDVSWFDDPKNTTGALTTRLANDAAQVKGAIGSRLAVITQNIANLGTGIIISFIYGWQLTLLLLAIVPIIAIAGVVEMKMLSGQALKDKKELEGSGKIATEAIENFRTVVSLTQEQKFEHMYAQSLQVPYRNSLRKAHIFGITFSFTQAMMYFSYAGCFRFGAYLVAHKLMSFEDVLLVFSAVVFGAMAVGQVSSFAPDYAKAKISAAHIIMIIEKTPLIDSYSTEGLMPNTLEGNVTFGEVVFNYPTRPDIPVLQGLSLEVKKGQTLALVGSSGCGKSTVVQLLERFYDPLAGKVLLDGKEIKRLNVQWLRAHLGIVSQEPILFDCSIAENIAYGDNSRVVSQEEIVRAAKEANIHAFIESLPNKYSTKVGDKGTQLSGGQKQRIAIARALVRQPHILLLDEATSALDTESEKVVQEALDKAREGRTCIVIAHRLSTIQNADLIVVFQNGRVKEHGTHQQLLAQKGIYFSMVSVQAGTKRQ

- Activity [1]: inhibitor [+]
- Activity [2]: is not an inhibitor [-]
Molecule: CCCCCCCC/C=C\CCCCCCCC(=O)OCCOCC(OCCO)C1OCC(OCCO)C1OCCO (stereo unspecified) [TWEEN 80]

- Activity [3]: is not an inhibitor [-]
- Activity [4]: inhibitor [+]
Molecule: CREMOPHOR EL

- Activity [5]: inhibitor [+]
- Activity [6]: inhibitor [+]
Molecule: PEG 300
